Earlier results on one compound are cited in article PMC3461162 (British Journal of Cancer, 2012).

The conditions of this data set: phase I, currently being investigated; no reference given; cited from earlier work.

`CNC(=O)c1cccc(-c2ccc3c(N4CCOC[C@@H]4C)nc(N4CCOC[C@@H]4C)nc3n2)c1` [AZD2014]: the Rise in transaminases entry is reported as “no rise in transaminases has been reported”.
